{
  "source": "paper PMC7069944",
  "about": "“Amino acid levels determine metabolism and CYP450 function of hepatocytes and hepatoma cell lines” (Nature Communications, 2020)",
  "key": {"HC3X": {"tested_on": "HC3X", "assay": "Repeated-exposure DILI training compounds, resazurin conversion, HC3X", "conditions": "for Resazurin conversion, repeated exposure (Supplementary Figure 7D): HC3X AAGLY D40", "procedure,_shortened": "(§1)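 PSC-derived cells differentiated in 384-well format, plus HepG2 seeded at 40,000 cells/well, received drugs after 8 h of attachment; untreated wells served as negative controls. Viability was measured by resazurin conversion and related to therapeutic Cmax values.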"}, "HepG2": {"tested_on": "HepG2", "assay": "Repeated-exposure DILI training compounds, resazurin conversion, HepG2", "procedure,_shortened": "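Viability by resazurin conversion, correlated with Cmax, was assessed after drug exposure in 384-well cultures of differentiated PSCs and of HepG2 (40,000 cells/well). Dosing began 8 h post-attachment, with untreated wells as negative control.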"}, "HLC": {"tested_on": "HLC", "assay": "Repeated-exposure DILI training compounds, resazurin conversion, HLC", "procedure,_shortened": "as §1"}, "HC6X": {"tested_on": "HC6X", "assay": "Repeated-exposure DILI training compounds, resazurin conversion, HC6X", "procedure,_shortened": "as §1"}},
  "note": "“And” between values parts separate entries of the source, which are not always exact repeats. Equal entries are not always repeated.",
  "data": [
    {"smiles": "Cc1ccc(C(=O)c2cc(O)c(O)c([N+](=O)[O-])c2)cc1", "note": "[tolcapone]", "values": [
      {"measurement": "Resazurin conversion, repeated exposure (Supplementary Figure 7D)", "setting": "HC3X; 10 uM", "result": "139.4 and 142.8 and 150.5 and 156.1 and 95.1 and 108.2"},
      {"measurement": "Resazurin conversion, repeated exposure (Supplementary Figure 7D)", "setting": "HC3X; 30 uM", "result": "50.8 and 58.9 and 61.5 and 64.6 and 88.9 and 76.4"},
      {"measurement": "Resazurin conversion, repeated exposure (Supplementary Figure 7D)", "setting": "HC3X; 300 uM", "result": "8.4 and 7.7 and 8 and 9.1 and 9.2"},
      {"measurement": "Resazurin conversion, repeated exposure (Supplementary Figure 7D)", "setting": "HC3X; 500 uM", "result": "11.6 and 15.4 and 8.7 and 13.6 and 11.8 and 12.2"},
      {"measurement": "Resazurin conversion, repeated exposure (Supplementary Figure 7D)", "setting": "HC3X; 1000 uM", "result": "6.7 and 6.6 and 6.4 and 6.5 and 7.5 and 9.6"},
      {"measurement": "Resazurin conversion, repeated exposure (Supplementary Figure 7D)", "setting": "HC3X; 2000 uM", "result": "4.2 and 4.1 and 4.6"},
      {"measurement": "Resazurin conversion, repeated exposure (Supplementary Figure 7D)", "setting": "HC3X; 4000 uM", "result": "3.1 and 3.3 and 3 and 3.2 and 3.4"},
      {"measurement": "IC50/Cmax", "setting": "HC3X; human", "result": 0.83},
      {"measurement": "Resazurin conversion, repeated exposure (Supplementary Figure 7D)", "setting": "HepG2; HepG2 AAGLY D30, 10 uM", "result": "106.6 and 108.2 and 105.6 and 120.1 and 84.5 and 128.6"},
      {"measurement": "Resazurin conversion, repeated exposure (Supplementary Figure 7D)", "setting": "HepG2; HepG2 AAGLY D30, 30 uM", "result": "144.6 and 128.4 and 104.2 and 136.2 and 93.4 and 133.6"},
      {"measurement": "Resazurin conversion, repeated exposure (Supplementary Figure 7D)", "setting": "HepG2; HepG2 AAGLY D30, 50 uM", "result": "126.9 and 134.9 and 97.9 and 148.8 and 105 and 143.9"},
      {"measurement": "Resazurin conversion, repeated exposure (Supplementary Figure 7D)", "setting": "HepG2; HepG2 AAGLY D30, 300 uM", "result": "44.5 and 61.6 and 62 and 66.8 and 60.8 and 73.6"},
      {"measurement": "Resazurin conversion, repeated exposure (Supplementary Figure 7D)", "setting": "HepG2; HepG2 AAGLY D30, 500 uM", "result": "48.7 and 42.4 and 39.6 and 41.5 and 43.3 and 45.5"},
      {"measurement": "Resazurin conversion, repeated exposure (Supplementary Figure 7D)", "setting": "HepG2; HepG2 AAGLY D30, 1000 uM", "result": "27.5 and 27.3 and 26.8 and 27.1 and 27.8"},
      {"measurement": "Resazurin conversion, repeated exposure (Supplementary Figure 7D)", "setting": "HepG2; HepG2 AAGLY D30, 2000 uM", "result": "22.7 and 22.5 and 22.2 and 22.1 and 22.4"},
      {"measurement": "Resazurin conversion, repeated exposure (Supplementary Figure 7D)", "setting": "HepG2; HepG2 AAGLY D30, 4000 uM", "result": "15.8 and 14.5 and 14.4 and 13.5 and 14.3"},
      {"measurement": "Resazurin conversion, repeated exposure (Supplementary Figure 7D)", "setting": "HepG2; HepG2 CTL D7, 10 uM", "result": "87 and 84.9 and 85.9 and 110.7 and 87.4 and 87.2"},
      {"measurement": "Resazurin conversion, repeated exposure (Supplementary Figure 7D)", "setting": "HepG2; HepG2 CTL D7, 30 uM", "result": "113.4 and 88.9 and 98.2 and 86.8 and 100.5 and 86.2"},
      {"measurement": "Resazurin conversion, repeated exposure (Supplementary Figure 7D)", "setting": "HepG2; HepG2 CTL D7, 300 uM", "result": "8.3 and 8 and 7.5 and 8.8 and 8.1"},
      {"measurement": "Resazurin conversion, repeated exposure (Supplementary Figure 7D)", "setting": "HepG2; HepG2 CTL D7, 500 uM", "result": "7.3 and 6.8 and 6.5 and 6.6 and 6.7"},
      {"measurement": "Resazurin conversion, repeated exposure (Supplementary Figure 7D)", "setting": "HepG2; HepG2 CTL D7, 1000 uM", "result": "6.4 and 5.9 and 5.8 and 5.6"},
      {"measurement": "Resazurin conversion, repeated exposure (Supplementary Figure 7D)", "setting": "HepG2; HepG2 CTL D7, 2000 uM", "result": "4.8 and 4.4 and 4"},
      {"measurement": "Resazurin conversion, repeated exposure (Supplementary Figure 7D)", "setting": "HepG2; HepG2 CTL D7, 4000 uM", "result": "2.3 and 2.5 and 2.2 and 2.1 and 2 and 2.6"},
      {"measurement": "Resazurin conversion, repeated exposure (Supplementary Figure 7D)", "setting": "HLC; HLC AAGLY D40, 10 uM", "result": "89.6 and 98.4 and 93.9 and 112.4 and 126.3 and 99.4"},
      {"measurement": "Resazurin conversion, repeated exposure (Supplementary Figure 7D)", "setting": "HLC; HLC AAGLY D40, 100 uM", "result": "143.7 and 88 and 126.1 and 79.6 and 153.9 and 130.7"},
      {"measurement": "Resazurin conversion, repeated exposure (Supplementary Figure 7D)", "setting": "HLC; HLC AAGLY D40, 500 uM", "result": "86.2 and 108.3 and 80.7 and 126.4 and 91.4 and 111.1"},
      {"measurement": "Resazurin conversion, repeated exposure (Supplementary Figure 7D)", "setting": "HLC; HLC AAGLY D40, 1000 uM", "result": "80.1 and 96.8 and 72.2 and 70.6 and 94.2 and 112.4"},
      {"measurement": "Resazurin conversion, repeated exposure (Supplementary Figure 7D)", "setting": "HLC; HLC LDM D40, 10 uM", "result": "110.5 and 107.3 and 79 and 94.2 and 118.4 and 85.4"},
      {"measurement": "Resazurin conversion, repeated exposure (Supplementary Figure 7D)", "setting": "HLC; HLC LDM D40, 50 uM", "result": "117.3 and 84.9 and 88.5 and 107.2 and 94.9 and 106"},
      {"measurement": "Resazurin conversion, repeated exposure (Supplementary Figure 7D)", "setting": "HLC; HLC LDM D40, 100 uM", "result": "136.2 and 145.5 and 129 and 115.8 and 107.1 and 144.8"},
      {"measurement": "Resazurin conversion, repeated exposure (Supplementary Figure 7D)", "setting": "HLC; HLC LDM D40, 500 uM", "result": "60.4 and 57.9 and 62.5 and 68.7 and 54 and 73.8"},
      {"measurement": "Resazurin conversion, repeated exposure (Supplementary Figure 7D)", "setting": "HLC; HLC LDM D40, 4000 uM", "result": "25.6 and 16.8 and 16.1 and 16 and 13.5 and 19.7"},
      {"measurement": "Resazurin conversion, repeated exposure (Supplementary Figure 7D)", "setting": "HC6X; HC6X AAGLY D40, 10 uM", "result": "103.7 and 134.6 and 82 and 87 and 83.1 and 109.6"},
      {"measurement": "Resazurin conversion, repeated exposure (Supplementary Figure 7D)", "setting": "HC6X; HC6X AAGLY D40, 30 uM", "result": "98.2 and 113.2 and 82.9 and 88.4 and 81.1 and 97.8"},
      {"measurement": "Resazurin conversion, repeated exposure (Supplementary Figure 7D)", "setting": "HC6X; HC6X AAGLY D40, 100 uM", "result": "47.9 and 57 and 49.7 and 51.8 and 54.9 and 72.8"},
      {"measurement": "Resazurin conversion, repeated exposure (Supplementary Figure 7D)", "setting": "HC6X; HC6X AAGLY D40, 300 uM", "result": "39.5 and 40.5 and 38.8 and 59.9 and 40.3 and 47.8"},
      {"measurement": "Resazurin conversion, repeated exposure (Supplementary Figure 7D)", "setting": "HC6X; HC6X AAGLY D40, 500 uM", "result": "34.3 and 39.2 and 30.7 and 33.5 and 40.3 and 34.2"},
      {"measurement": "Resazurin conversion, repeated exposure (Supplementary Figure 7D)", "setting": "HC6X; HC6X AAGLY D40, 1000 uM", "result": "31.1 and 26.7 and 26.3 and 27.6 and 26.5"},
      {"measurement": "Resazurin conversion, repeated exposure (Supplementary Figure 7D)", "setting": "HC6X; HC6X AAGLY D40, 2000 uM", "result": "22.1 and 28.3 and 22.3 and 22.5 and 23 and 22.4"},
      {"measurement": "Resazurin conversion, repeated exposure (Supplementary Figure 7D)", "setting": "HC6X; HC6X AAGLY D40, 4000 uM", "result": "17.8 and 17.3 and 16.6 and 16.3 and 16.4 and 16.8"},
      {"measurement": "Resazurin conversion, repeated exposure (Supplementary Figure 7D)", "setting": "HC6X; HC6X AAGLY D40 Remove dox, 30 uM", "result": "108.6 and 121.2 and 103 and 112.9 and 119.8 and 93.5"},
      {"measurement": "Resazurin conversion, repeated exposure (Supplementary Figure 7D)", "setting": "HC6X; HC6X AAGLY D40 Remove dox, 50 uM", "result": "77 and 153.8 and 144.7 and 105.2 and 81.9 and 88.4"},
      {"measurement": "Resazurin conversion, repeated exposure (Supplementary Figure 7D)", "setting": "HC6X; HC6X AAGLY D40 Remove dox, 1000 uM", "result": "78.8 and 118 and 78.9 and 118.9 and 81.8 and 105.5"}
    ]}
  ]
}
